Measurements from the NIST ThermoML archive (doi:10.1016/j.jct.2009.06.019).
± gives the expanded uncertainty stated by the source.

Assay: xn = mol fraction of the nth substance listed
Conditions: 101.3 kPa, Liquid, Vibrating tube method

CN1CCN(C)C1=O [1,3-dimethyl-2-imidazolidinone] + [2H]O[2H]
mass density [kg/m3]
Conditions	278.15 K	288.15 K	298.15 K	308.15 K	313.15 K	318.15 K
x1 = 0.001014	1105.53 ± 0.07	1105.7 ± 0.07	1104.24 ± 0.07	1101.46 ± 0.07	1099.65 ± 0.07	1097.62 ± 0.07
x1 = 0.001853	1105.6 ± 0.07	1105.72 ± 0.07	1104.2 ± 0.07	1101.34 ± 0.07	1099.52 ± 0.07	1097.48 ± 0.07
x1 = 0.002463	1105.67 ± 0.07	1105.72 ± 0.07	1104.15 ± 0.07	1101.29 ± 0.07	1099.44 ± 0.07	1097.38 ± 0.07
x1 = 0.003372	1105.77 ± 0.07	1105.73 ± 0.07	1104.13 ± 0.07	1101.19 ± 0.07	1099.33 ± 0.07	1097.23 ± 0.07
x1 = 0.004298	1105.89 ± 0.07	1105.78 ± 0.07	1104.08 ± 0.07	1101.13 ± 0.07	1099.22 ± 0.07	1097.09 ± 0.07
x1 = 0.004982	1105.97 ± 0.08	1105.83 ± 0.07	1104.06 ± 0.07	1101.05 ± 0.07	1099.13 ± 0.07	1097.01 ± 0.07
x1 = 0.006229	1106.16 ± 0.08	1105.89 ± 0.08	1104.06 ± 0.07	1100.95 ± 0.07	1099 ± 0.07	1096.83 ± 0.07
x1 = 0.007163	1106.33 ± 0.08	1105.96 ± 0.08	1104.06 ± 0.07	1100.89 ± 0.07	1098.91 ± 0.07	1096.72 ± 0.07
x1 = 0.008054	1106.48 ± 0.08	1106.05 ± 0.08	1104.07 ± 0.07	1100.87 ± 0.07	1098.85 ± 0.07	1096.62 ± 0.07
x1 = 0.009084	1106.65 ± 0.08	1106.13 ± 0.08	1104.08 ± 0.07	1100.81 ± 0.07	1098.77 ± 0.07	1096.51 ± 0.07
x1 = 0.01051	1106.96 ± 0.08	1106.33 ± 0.08	1104.16 ± 0.07	1100.77 ± 0.07	1098.67 ± 0.07	1096.37 ± 0.07

[2H]O[2H] [water-d2] + CN1CCN(C)C1=O
x2 = 0
Conditions	mass density [kg/m3]
278.15 K	1105.46 ± 0.07
288.15 K	1105.7 ± 0.07
298.15 K	1104.31 ± 0.07
308.15 K	1101.59 ± 0.07
313.15 K	1099.83 ± 0.07
318.15 K	1097.81 ± 0.07
